“And” between values parts separate entries of the source, which are not always exact repeats. Equal entries are not always repeated. Where two headings read alike, the source gives them in different places.
Tests used:
[1] = system: tbaqp2/tbaqp3 null cells expressing TbAQP2^L258Y; assay type: cell-based, Trypanosoma brucei brucei
[2] = system: tbaqp2/tbaqp3 null cells expressing TbAQP2^I110W/L264R; assay type: cell-based, Trypanosoma brucei brucei
[3] = system: tbaqp2/tbaqp3 null cells expressing TbAQP2^I190T; assay type: cell-based, Trypanosoma brucei brucei
[4] = system: tbaqp2/tbaqp3 null cells expressing TbAQP2^L84W/L118W; assay: Drug sensitivity assay (resazurin); assay type: cell-based, Trypanosoma brucei brucei; details: Fig. 4A, L84W/L118W in aqp2/aqp3 null, read-out: Alamar blue EC50, single repeats
[5] = system: tbaqp2/tbaqp3 null cells expressing TbAQP3^W102I/R256L; assay type: cell-based, Trypanosoma brucei brucei
[6] = system: tbaqp2 null (AQP2-KO); assay: Drug sensitivity assay (resazurin); assay type: cell-based; details: Trypanosoma brucei, read-out: EC50 AQP2-KO AVG, AQP2-KO / tbaqp2 null; 48 h drug + 24 h resazurin
[7] = biological target: TbAQP2^I110W (Trypanosoma brucei brucei, UniProt Q6ZXT3, I110W); assay: [3H]-pentamidine transport; assay type: cell-based; details: 30 nM [3H]-pentamidine
[8] = biological target: T1, TbAQP2^I190T (Trypanosoma brucei brucei, UniProt Q6ZXT3, I190T); assay: cell-based
T1 sequence (Q6ZXT3 1-312 I190T): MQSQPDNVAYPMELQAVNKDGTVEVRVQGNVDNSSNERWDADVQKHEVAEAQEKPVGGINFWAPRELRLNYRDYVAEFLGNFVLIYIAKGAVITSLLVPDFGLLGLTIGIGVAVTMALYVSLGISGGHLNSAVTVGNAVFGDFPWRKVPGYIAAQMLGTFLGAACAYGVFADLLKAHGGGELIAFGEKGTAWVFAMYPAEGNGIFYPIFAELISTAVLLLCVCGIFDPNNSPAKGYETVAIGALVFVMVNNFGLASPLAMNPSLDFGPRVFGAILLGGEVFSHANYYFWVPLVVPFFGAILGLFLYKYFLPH

[9] = system: TbAQP2^I190T; assay: cell-based; set-up: species or system Trypanosoma brucei brucei; details: TbAQP2^I190T cells; read-out: Km of lower affinity segment (LAPT1)
[10] = biological target: TbAQP2 L84W (Trypanosoma brucei brucei, UniProt Q6ZXT3, L84W); assay: [3H]-pentamidine transport; assay type: cell-based; details: AQP2 mutant L84W; n=5
[11] = biological target: TbAQP3 (Trypanosoma brucei brucei, UniProt Q6ZXT2); assay type: cell-based
[12] = biological target: TbAQP3^W102I/R256L (Trypanosoma brucei brucei, UniProt Q6ZXT2, R256L/W102I); assay: [3H]-pentamidine transport; assay type: cell-based; details: AQP3 W102I/R256L; over 30 minutes
[13] = system: CRK12 RNAi cells; assay: [3H]-pentamidine transport after CRK12 RNAi induction (endocytosis defect); assay type: cell-based, Trypanosoma brucei
[14] = Fig. 3A, exp AQP038-AQP041, AQP2 mutant I190T

TbAQP3, sequence (Q6ZXT2 whole entry): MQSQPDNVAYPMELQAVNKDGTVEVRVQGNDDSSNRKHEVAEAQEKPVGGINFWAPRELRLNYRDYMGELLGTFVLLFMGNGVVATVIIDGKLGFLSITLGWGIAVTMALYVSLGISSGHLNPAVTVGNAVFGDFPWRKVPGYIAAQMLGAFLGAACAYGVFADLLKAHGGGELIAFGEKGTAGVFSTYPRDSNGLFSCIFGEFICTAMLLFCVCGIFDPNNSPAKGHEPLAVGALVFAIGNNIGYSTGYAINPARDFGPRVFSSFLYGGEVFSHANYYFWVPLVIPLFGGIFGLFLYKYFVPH
TbAQP3^W102I/R256L, sequence (Q6ZXT2 whole entry W102I/R256L): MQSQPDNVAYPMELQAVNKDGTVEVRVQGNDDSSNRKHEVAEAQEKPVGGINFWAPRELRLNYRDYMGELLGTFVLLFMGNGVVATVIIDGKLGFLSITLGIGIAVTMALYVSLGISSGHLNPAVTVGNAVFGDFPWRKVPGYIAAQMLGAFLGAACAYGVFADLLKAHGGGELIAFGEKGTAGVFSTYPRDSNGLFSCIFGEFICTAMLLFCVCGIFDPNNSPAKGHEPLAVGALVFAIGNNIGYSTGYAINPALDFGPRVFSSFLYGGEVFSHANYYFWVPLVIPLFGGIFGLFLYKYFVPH
TbAQP2^I110W, sequence (Q6ZXT3 whole entry I110W): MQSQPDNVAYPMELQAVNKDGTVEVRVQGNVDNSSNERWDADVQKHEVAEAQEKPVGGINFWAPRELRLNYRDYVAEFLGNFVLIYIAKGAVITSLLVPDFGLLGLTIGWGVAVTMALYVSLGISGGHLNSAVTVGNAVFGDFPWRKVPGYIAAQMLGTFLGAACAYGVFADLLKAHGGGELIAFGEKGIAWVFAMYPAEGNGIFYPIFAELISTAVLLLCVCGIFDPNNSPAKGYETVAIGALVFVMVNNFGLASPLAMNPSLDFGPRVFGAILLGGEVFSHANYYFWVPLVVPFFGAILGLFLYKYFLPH
TbAQP2 L84W, sequence (Q6ZXT3 whole entry L84W): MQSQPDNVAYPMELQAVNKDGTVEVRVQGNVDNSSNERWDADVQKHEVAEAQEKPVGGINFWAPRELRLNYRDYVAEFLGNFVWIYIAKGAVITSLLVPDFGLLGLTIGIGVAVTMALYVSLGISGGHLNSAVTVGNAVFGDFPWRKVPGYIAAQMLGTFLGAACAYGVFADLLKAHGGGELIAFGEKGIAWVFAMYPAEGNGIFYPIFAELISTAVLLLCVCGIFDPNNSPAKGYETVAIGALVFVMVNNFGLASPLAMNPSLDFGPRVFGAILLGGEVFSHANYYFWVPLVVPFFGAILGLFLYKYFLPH

N=C(N)c1ccc(OCCCCCOc2ccc(C(=N)N)cc2)cc1 [Pentamidine]
EC50, percent of AQP2/3 null EC50 [1]: 0.50% | EC50 as percent of AQP2/3 null EC50, MEAN [2]: 101.41% | EC50 as percent of AQP2/3 null EC50, MEAN [3]: 6.89% | EC50 [4]: 65.7 nM | EC50 ([4]; Trypanosoma brucei): 53.4 nM | EC50 as percent of AQP2/3 null EC50, MEAN [5]: 83.83% | EC50 [6]: 130 nM | Pentamidine transport rate [7]: 0.000216 pmol/10E7 cells/s | IC50 [8]: 30.9 ± 12.2 nM | Pentamidine transport rate as percent of +AQP2-WT, AVG [8, 14]: 2.728% | Pentamidine transport rate, AVG [8, 14]: 0.0008657 pmol/10E7 cells/s | Pentamidine transport rate, single experiments [8, 14]: 0.0007167 pmol/10E7 cells/s and 0.001156 pmol/10E7 cells/s and 0.0009528 pmol/10E7 cells/s and 0.0006372 pmol/10E7 cells/s | Km [9]: 59.9 ± 9.1 µM | Pentamidine transport rate AVG [10]: 0.0006628 pmol/10E7 cells/s | Pentamidine transport rate [11]: 1.04E-04 pmol/10E7 cells/s | Pentamidine transport rate, percent of TbAQP2WT control [11]: 0.49% | Transport rate AVG [11]: 0.48 | Pentamidine transport rate [12]: 1.51E-04 pmol/10E7 cells/s | pentamidine uptake rate, CRK+tet, AVERAGE ([13]; CRK12 RNAi induced (+tet), 4 experiments): 0.00587 pmol/1E7 cells/s-1 | pentamidine uptake rate, CRK+tet ([13]; CRK12 RNAi induced (+tet), single experiments): 0.00804 pmol/1E7 cells/s-1 and 0.004193 pmol/1E7 cells/s-1 and 0.006636 pmol/1E7 cells/s-1 and 0.004619 pmol/1E7 cells/s-1 | pentamidine uptake rate, CRK-tet, AVERAGE ([13]; CRK12 RNAi not induced (-tet), 4 experiments): 0.00656 pmol/1E7 cells/s-1
